Measurements as given in patent US8580825B2, “Oxadiazole inhibitors of leukotriene production” (Boehringer Ingelheim International GmbH, priority 2010, dated 2013).
pIC50: −log10 of the molar value.

Tests used:
[1] = tested on: synthesis of LTB4 in human whole blood; experiment: human whole blood LTB4 production inhibition assay; assay type: cell-based; conditions: calcimycin stimulated, read-out: hWB LTB4 IC50
Method in brief: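 Heparinized human whole blood was preincubated with compound for 15 min at 37° C, then stimulated with calcimycin (20 μM final, in PBS pH 7.4) for a further 30 min at 37° C. Plasma LTB4 was quantified by antibody-based homogeneous time-resolved fluorescence.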

[2] = target: T1, recombinant human FLAP protein (Homo sapiens, UniProt P20292); experiment: FLAP binding assay (Scintillation Proximity Assay, displacement of [125I]L-691,831); conditions: read-out: FLAP SPA IC50
T1 construct: made in house; host or cells: Sf9 insect cells (100,000xg membrane fraction used)
T1 sequence (P20292 1-161): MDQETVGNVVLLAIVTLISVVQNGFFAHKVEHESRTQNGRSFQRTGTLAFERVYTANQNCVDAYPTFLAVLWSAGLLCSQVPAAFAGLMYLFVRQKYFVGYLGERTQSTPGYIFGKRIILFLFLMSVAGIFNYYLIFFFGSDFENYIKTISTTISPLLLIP
Method in brief: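 Scintillation proximity displacement of [125I]L-691,831 (0.08 nM) from membranes of sf9 cells expressing recombinant human FLAP (5 μg/well) on WGA SPA beads, pH 7.5 Tris buffer. Plates shaken 2 h before counting. Non-specific binding defined with 10 μM unlabelled L-691,831.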

Row | pIC50 [1] | pIC50 [2] | SMILES
1 | 6.96 | 8.02 | Cn1cc(-c2nc(C(C)(c3ccc(-c4cnc(N)nc4)nc3)C3CC3)no2)cn1 (centres unmarked) [Example 50, 5-(5-{1-cyclopropyl-1-[5-(1-methyl-1H-pyrazol-4-yl)-1,2,4-oxadiazol-3-yl]ethyl}pyridin-2-yl)pyrimidin-2-amine]
2 | 6.80 | 8.52 | CC(C)[C@](C)(c1ccc(-c2cnc(N)nc2)nc1)c1noc(-c2cnc(N3CCNCC3)cn2)n1 [Example 51, 5-{5-[(2R)-3-methyl-2-{5-[5-(piperazin-1-yl)pyrazin-2-yl]-1,2,4-oxadiazol-3-yl}butan-2-yl]pyridin-2-yl}pyrimidin-2-amine]
3 | 6.57 | 7.85 | CC(C)[C@@](C)(c1ccc(-c2cnc(N)nc2)nc1)c1noc(-c2cnc(N3CCNCC3)cn2)n1 [Example 52, 5-{5-[(2S)-3-methyl-2-{5-[5-(piperazin-1-yl)pyrazin-2-yl]-1,2,4-oxadiazol-3-yl}butan-2-yl]pyridin-2-yl}pyrimidin-2-amine]
4 | 6.64 | 7.90 | CNC(=O)Cn1cc(-c2nc([C@@](C)(c3ccc(-c4cnc(N)nc4)nc3)C(C)C)no2)cn1 [Example 53, 2-[4-(3-{(2R)-2-[6-(2-aminopyrimidin-5-yl)pyridin-3-yl]-3-methylbutan-2-yl}-1,2,4-oxadiazol-5-yl)-1H-pyrazol-1-yl]-N-methylacetamide]
5 | 6.12 | 7.15 | CNC(=O)Cn1cc(-c2nc([C@](C)(c3ccc(-c4cnc(N)nc4)nc3)C(C)C)no2)cn1 [Example 54, 2-[4-(3-{(2S)-2-[6-(2-aminopyrimidin-5-yl)pyridin-3-yl]-3-methylbutan-2-yl}-1,2,4-oxadiazol-5-yl)-1H-pyrazol-1-yl]-N-methylacetamide]
6 | 7.34 | 8.60 | COCCN(C)c1cnc(-c2nc([C@@](C)(c3ccc(-c4cnc(N)nc4)nc3)C(C)C)no2)cn1 [Example 55, 5-{5-[(2R)-2-(5-{5-[(2-methoxyethyl)(methyl)amino]pyrazin-2-yl}-1,2,4-oxadiazol-3-yl)-3-methylbutan-2-yl]pyridin-2-yl}pyrimidin-2-amine]
7 | 6.64 | 7.93 | COCCN(C)c1cnc(-c2nc([C@](C)(c3ccc(-c4cnc(N)nc4)nc3)C(C)C)no2)cn1 [Example 56, 5-{5-[(2S)-2-(5-{5-[(2-methoxyethyl)(methyl)amino]pyrazin-2-yl}-1,2,4-oxadiazol-3-yl)-3-methylbutan-2-yl]pyridin-2-yl}pyrimidin-2-amine]
8 | 7.48 | 7.80 | Cn1cc(-c2nc([C@@](C)(c3ccc(-c4cnc(N)nc4)nc3)C3CC3)no2)cn1 [Example 57, 5-(5-{(1R)-1-cyclopropyl-1-[5-(1-methyl-1H-pyrazol-4-yl)-1,2,4-oxadiazol-3-yl]ethyl}pyridin-2-yl)pyrimidin-2-amine]
9 | 6.01 | 6.64 | Cn1cc(-c2nc([C@](C)(c3ccc(-c4cnc(N)nc4)nc3)C3CC3)no2)cn1 [Example 58, 5-(5-{(1S)-1-cyclopropyl-1-[5-(1-methyl-1H-pyrazol-4-yl)-1,2,4-oxadiazol-3-yl]ethyl}pyridin-2-yl)pyrimidin-2-amine]
10 | 5.74 | 6.35 | CC(C)[C@@](C)(c1ccc(-c2cnc(N)nc2)nc1)c1noc(-c2cnn(CC(=O)N(C)C)c2)n1 [Example 59, 2-[4-(3-{(2S)-2-[6-(2-aminopyrimidin-5-yl)pyridin-3-yl]-3-methylbutan-2-yl}-1,2,4-oxadiazol-5-yl)-1H-pyrazol-1-yl]-N,N-dimethylacetamide]
11 | 7.77 | 8.47 | CC(C)[C@](C)(c1ccc(-c2ccc(N)nc2)nc1)c1noc(-c2cnn(C)c2)n1 [Example 60, 5-{(2R)-3-methyl-2-[5-(1-methyl-1H-pyrazol-4-yl)-1,2,4-oxadiazol-3-yl]butan-2-yl}-2,3′-bipyridin-6′-amine]
12 | 7.32 | 8.52 | CC(C)[C@](C)(c1ccc(-c2cnc(N)nc2)nc1)c1noc(-c2cnn(CC(=O)N(C)C)c2)n1 [Example 61, 2-[4-(3-{(2R)-2-[6-(2-aminopyrimidin-5-yl)pyridin-3-yl]-3-methylbutan-2-yl}-1,2,4-oxadiazol-5-yl)-1H-pyrazol-1-yl]-N,N-dimethylacetamide]
13 | 6.38 | 7.71 | CC(C)C(C)(c1ccc(-c2cnc(N)nc2)nc1)c1noc(-c2ccc(I)cc2)n1 (centres unmarked) [Example 62, 5-(5-{2-[5-(4-iodophenyl)-1,2,4-oxadiazol-3-yl]-3-methylbutan-2-yl}pyridin-2-yl)pyrimidin-2-amine]
14 | 7.54 | 8.06 | CC(c1ccc(-c2cnc(N)nc2)nc1)(c1noc(-c2cnn(C3COC3)c2)n1)C1CC1 (centres unmarked) [Example 63, 5-[5-(1-cyclopropyl-1-{5-[1-(oxetan-3-yl)-1H-pyrazol-4-yl]-1,2,4-oxadiazol-3-yl}-ethyl)pyridin-2-yl]pyrimidin-2-amine]
15 | 7.10 | 8.20 | CC(c1ccc(-c2cnc(N)nc2)nc1)(c1noc(-c2cn[nH]c2)n1)C1CC1 (centres unmarked) [Example 64, 5-(5-{1-cyclopropyl-1-[5-(1H-pyrazol-4-yl)-1,2,4-oxadiazol-3-yl]ethyl}pyridin-2-yl)pyrimidin-2-amine]
16 | 7.55 | 8.80 | C=C(CO)n1cc(-c2nc(C(C)(c3ccc(-c4cnc(N)nc4)nc3)C3CC3)no2)cn1 (centres unmarked) [Example 65, 2-[4-(3-{1-[6-(2-aminopyrimidin-5-yl)pyridin-3-yl]-1-cyclopropylethyl}-1,2,4-oxadiazol-5-yl)-1H-pyrazol-1-yl]prop-2-en-1-ol]
17 | 6.54 | 6.96 | CN(C)C(=O)Cn1cc(-c2nc(C(C)(c3ccc(-c4cnc(N)nc4)nc3)C3CC3)no2)cn1 (centres unmarked) [Example 67, 2-[4-(3-{1-[6-(2-aminopyrimidin-5-yl)pyridin-3-yl]-1-cyclopropylethyl}-1,2,4-oxadiazol-5-yl)-1H-pyrazol-1-yl]-N,N-dimethylacetamide]
18 | 7.10 | 7.62 | COCCn1cc(-c2nc(C(C)(c3ccc(-c4cnc(N)nc4)nc3)C3CC3)no2)cn1 (centres unmarked) [Example 68, 5-[5-(1-cyclopropyl-1-{5[1-(2-methoxyethyl)-1H-pyrazol-4-yl]-1,2,4-oxadiazol-3-yl}ethyl)pyridin-2-yl]pyrimidin-2-amine]
19 | 6.08 | 7.19 | CC(C)C(C)(c1ccc(-c2cnc(N)nc2)nc1)c1noc(-c2ccc(I)c(Br)c2)n1 (centres unmarked) [Example 69, 5-(5-{2-[5-(3-bromo-4-iodophenyl)-1,2,4-oxadiazol-3-yl]-3-methylbutan-2-yl}pyridin-2-yl)pyrimidin-2-amine]
20 | 6.62 | 7.91 | CC(C)C(C)(c1ccc(-c2cnc(N)nc2)nc1)c1noc(-c2cccnc2)n1 (centres unmarked) [Example 70, 5-(5-{3-methyl-2-[5-(pyridin-3-yl)-1,2,4-oxadiazol-3-yl]butan-2-yl}pyridin-2-yl)pyrimidin-2-amine]
21 | 6.08 | 8.09 | CC(C)C(C)(c1ccc(-c2cnc(N)nc2)nc1)c1noc(-c2ccccc2)n1 (centres unmarked) [Example 71, 5-{5-[3-methyl-2-(5-phenyl-1,2,4-oxadiazol-3-yl)butan-2-yl]pyridin-2-yl}pyrimidin-2-amine]
22 | 6.36 | 7.58 | Cc1ccc(-c2nc(C(C)(c3ccc(-c4cnc(N)nc4)nc3)C(C)C)no2)cn1 (centres unmarked) [Example 72, 5-(5-{3-methyl-2-[5-(6-methylpyridin-3-yl)-1,2,4-oxadiazol-3-yl]butan-2-yl}pyridin-2-yl)pyrimidin-2-amine]
23 | 6.96 | 8.41 | CC(C)C(C)(c1ccc(-c2cnc(N)nc2)nc1)c1noc(-c2cn[nH]c2)n1 (centres unmarked) [Example 73, 5-(5-{3-methyl-2-[5-(1H-pyrazol-4-yl)-1,2,4-oxadiazol-3-yl]butan-2-yl}pyridin-2-yl)pyrimidin-2-amine]
24 | 6.66 | 8.51 | CC(C)C(C)(c1ccc(-c2cnc(N)nc2)nc1)c1noc(-c2ccc(NCCO)nc2)n1 (centres unmarked) [Example 74, 2-{[5-(3-{2-[6-(2-aminopyrimidin-5-yl)pyridin-3-yl]-3-methylbutan-2-yl}-1,2,4-oxadiazol-5-yl)pyridin-2-yl]amino}ethanol]
25 | 7.28 | 7.49 | COCCn1cc(-c2nc([C@@](C)(c3ccc(-c4cnc(N)nc4)nc3)C3CC3)no2)cn1 [Example 75, 5-{5-[(1R)-1-cyclopropyl-1-{5-[1-(2-methoxyethyl)-1H-pyrazol-4-yl]-1,2,4-oxadiazol-3-yl}ethyl]pyridin-2-yl}pyrimidin-2-amine]
26 | 5.70 | 6.72 | COCCn1cc(-c2nc([C@](C)(c3ccc(-c4cnc(N)nc4)nc3)C3CC3)no2)cn1 [Example 76, 5-{5-[(1S)-1-cyclopropyl-1-{5-[1-(2-methoxyethyl)-1H-pyrazol-4-yl]-1,2,4-oxadiazol-3-yl}ethyl]pyridin-2-yl}pyrimidin-2-amine]
27 | 7.82 | 9.85 | CC(C)[C@](C)(c1ccc(-c2cnc(N)cn2)nc1)c1noc(-c2cnn(C)c2)n1 [Example 77, 5-(5-{(2R)-3-methyl-2-[5-(1-methyl-1H-pyrazol-4-yl)-1,2,4-oxadiazol-3-yl]butan-2-yl}pyridin-2-yl)pyrazin-2-amine]
28 | 7.54 | 8.10 | C[C@@](c1ccc(-c2cnc(N)nc2)nc1)(c1noc(-c2cnn(C3COC3)c2)n1)C1CC1 [Example 78, 5-{5-[(1R)-1-cyclopropyl-1-{5-[1-(oxetan-3-yl)-1H-pyrazol-4-yl]-1,2,4-oxadiazol-3-yl}ethyl]pyridin-2-yl}pyrimidin-2-amine]
